Laboratory results from patent publication US20130123201A1, “MODULATION OF CYTOKINE-INDUCED CHRONIC INFLAMMATORY RESPONSES” (UNIVERSITY OF MANITOBA, priority 2010, published 2013).
No end group written: not given here.

How the values were obtained:
Format in all cases: cell-based
[1] = system: human T-cell Jurkat cell line; assay: Cellular cytotoxicity by LDH release; details: human T-cell Jurkat cells
Protocol: (§1) Where indicated the THP-1 cells were differentiated to plastic-adherent macrophage-like cells by treatment with phorbol 12-myristate 13-acetate (PMA; Sigma-Aldrich Canada, Oakville ON) as taught by Mookherjee et al. (2006). A rabbit synoviocyte cell line HIG-82 (ATCC® CRL-1832) was cultured in Ham's F-12 growth medium containing glutamine supplemented with sodium pyruvate (referred to as complete F-12 media henceforth), containing 10% (v/v) FBS in a humidified incubator at 37° C. and 5% CO2. Confluent HIG-82 cells were trypsinized with 1:3 dilution of 0.5% trypsin-EDTA in Hanks' balanced salt solution. Cellular cytotoxicity was evaluated after AHA labeling and upon stimulation with the various cytokines for all the cell types used in this study by monitoring the release of lactate dehydrogenase (LDH) employing a colorimetric detection kit (Roche Diagnostics, Laval, QC, Canada). Recombinant human cytokines TNF-α and IL-1β were obtained from eBioscience, Inc (San Diego, Calif., USA).

[2] = system: rabbit synovial fibroblast HIG-82 cell line; assay: Cellular cytotoxicity by LDH release; details: HIG-82 synovial fibroblast cell line, within 4 hr
Protocol: as §1

[3] = system: human monocytic THP-1 cells; assay: Cellular cytotoxicity by LDH release
Protocol: Human monocytic THP-1 (ATCC® TIB-202; ATCC is a registered trademark of the American Type Culture Collection, Manassas, Va., USA) cells were cultured in RPMI-1640 media containing 2 mM L-glutamine and 1 mM sodium pyruvate (referred to as complete RPMI media from here on), supplemented with 10% (v/v) FBS, and maintained in a humidified incubator at 37° C. and 5% CO2. […] Cellular cytotoxicity was evaluated after 24 hr stimulation with the various stimulants used in this study by monitoring the release of lactate dehydrogenase (LDH) employing a colorimetric detection kit (Roche Diagnostics, Laval, QC, Canada) Human monocytic THP-1 (ATCC® TIB-202) cells and Jurkat T-cell line (ATCC® TIB-152) were cultured in RPMI-1640 media containing 2 mM L-glutamine and 1 mM sodium pyruvate, supplemented with 10% (v/v) FBS, and maintained in a humidified incubator at 37° C. and 5% CO2. […] Cellular cytotoxicity was evaluated after AHA labeling and upon stimulation with the various cytokines for all the cell types used in this study by monitoring the release of lactate dehydrogenase (LDH) employing a colorimetric detection kit (Roche Diagnostics, Laval, QC, Canada).

[4] = system: Human macrophage-like THP-1 cells; assay: ELISA of cytokine/chemokine production in THP-1 tissue culture supernatants; details: macrophage-like THP-1 cells, IL-32 20 ng/mL, 24 hr
Protocol: ELISA immunoassay: Tissue culture supernatants were centrifuged at 1500× g for 5-7 min to obtain cell-free samples and the aliquots were stored at −20° C. until further use. Production of chemokine Gro-α was monitored in the tissue culture supernatants by ELISA employing human Gro-α DuoSet (R&D Systems Inc.) as per the manufacturer's instructions. Production of cytokine TNF-α was monitored in the tissue culture supernatants using specific antibody pairs from eBioscience, Inc., and production of IL-8 was monitored using specific antibody pairs from R&D Systems, Inc., as per the manufacturer's instructions. The concentration of the cytokines or chemokines in the tissue culture supernatants was evaluated by establishing a standard curve with serial dilutions of the recombinant human cytokines or chemokines as required.
ELISA immunoassay: Tissue culture supernatants were centrifuged at 1500× g for 5-7 min to obtain cell-free samples and the aliquots were stored at −20° C. until further use. Production of chemokine Gro-α was monitored in the tissue culture supernatants by ELISA employing human Gro-α DuoSet (R&D Systems Inc.) per the manufacturer's instructions. Production of cytokine TNF-α was monitored in the tissue culture supernatants using specific antibody pairs from eBioscience, Inc., and production of IL-8 was monitored using specific antibody pairs from R&D Systems, Inc., per the manufacturers' instructions. The concentrations of the cytokines or chemokines in the tissue culture supernatants were evaluated by establishing a standard curve with serial dilutions of the recombinant human cytokines or chemokines as required.
Impact of cationic peptide LL-37 and its synthetic derivatives on IL-32-induced protein production: Human macrophage-like THP-1 cells were stimulated with IL-32 (20 ng/mL) in the presence and absence of cationic peptide LL-37, tissues culture supernatants were monitored for the production of pro-inflammatory cytokines TNF-α and IL-1β, and chemokines after 24 hr of stimulation. […] As LL-37 suppressed IL-32-mediated pro-inflammatory responses, we also evaluated the impact of LL-37 derived synthetic peptides. […] No studies to data have explored the impact of these peptides in the context of chronic inflammation. […] This provides the data that supports further investigation of these peptide candidates as potential therapeutics for diseases characterized by chronic inflammation.

[5] = system: human PBMC; assay: ELISA of IL-32-induced TNF-α and IL-1β production in PBMC (ex-vivo); details: for Effect on IL-32-induced TNF-α production: p<0.05; for Effect on IL-32 induced pro-inflammatory protein production (FIG. 21 legend): peripheral blood mononuclear cells
Source text: In order to confirm these activities in a physiologically relevant system, we evaluated the impact of the peptide in an ex-vivo assay using human PBMC, because cells recruited from the circulation are a major component of inflammatory infiltrates. Venous blood was collected from healthy volunteers with informed consent in accordance to a protocol approved by the Institutional Review Board at the University of Manitoba. PBMC was isolated from blood following the teaching of Mookherjee et al. (2009, Systems biology evaluation of immune responses induced by human host defence peptide LL-37 in mononuclear cells. Mol. Biosyst. 5:483-496). PBMC were stimulated with chronic inflammatory cytokine IL-32 (20 ng/ml) in the presence and absence of 5 μM of peptides, LL-37 and its derivatives (Table 7) for 24 hr. The tissue culture supernatants were monitored for the production of pro-inflammatory cytokines TNF-α and IL-1β by ELISA. […] Results shown are an average of four independent biological experiments performed with cells isolated from blood of four different donors ±standard error.

[6] = system: human monocytic THP-1 cells; assay: AHA labeling, affinity purification and iTRAQ quantitative proteomics of nascent proteins; details: AHA-labeled THP-1 cells, cytokine 10 ng/ml, 4 hr, vs un-stimulated cells
Protocol: (§2) AHA labeling, biotin tagging of nascent proteins, and affinity purification: Cells were washed with warm D-PBS, and cultured in methionine-free, serum-free RPMI media at 37° C. 5% CO2 for 60 min. […] TC supernatants were monitored for the production of IL-8 by ELISA. Metabolic labeling of the cells with AHA reagent in the presence of the cytokine stimulants would result in induced nascent proteins with azide-bearing functional group, thus making them distinct from pool of pre-existing cellular proteins. Also these functional groups were further used to tag the nascent proteins with a biotin-alkyne reagent as follows. The cells were washed with D-PBS, followed by preparing cell lysates in lysis buffer containing 50 mM Tris-HCl, 1% SDS, 250 U/ml of benzonase nuclease and protease and phosphatase inhibitor cocktails (Sigma-Aldrich Canada Inc.). Total protein was estimated in the cell lysates using micro BCA analysis. Equivalent amount of total protein from each sample was acetone precipitated and then treated with Click-iT® Biotin-alkyne reagent (Invitrogen Canada Inc.) per the manufacturer's instructions. The biotin-alkyne reagent thus covalently coupled to the reactive azide group of the AHA-modified proteins was used to subsequently enrich the nascent proteins by affinity purification using Ultralink® Immobilized NeutrAvidin® resin (Ultralink and NeutrAvidin are registered trademarks of Pierce Biotechnology Inc, Rockford, Ill., USA), and the bound proteins were eluted using 6 M guanidinium hydrochloride.
Quantitative proteomics employing isobaric tag for relative and absolute quantitation (iTRAQ): Amine-modifying iTRAQ™ reagents multiplex kit (Applied Biosystems, Foster City, Calif., USA) was employed for relative quantitation of purified nascent proteins. Affinity purified eluates were acetone precipitated at −20° C. overnight. Proteins were dissolved in 20 μl of iTRAQ dissolution buffer (Applied Biosystems) and further processed as per the manufacturer's instructions. Briefly, proteins were reduced and the cysteines blocked using the reagents in kit, followed by digestion of the protein samples with provided trypsin solution overnight at 37° C. […] The contents from each of the iTRAQ reagent-labeled sample was combined together and processed for nanoflow liquid chromatography coupled to tandem mass spectrometry (LC-MS/MS).
The AHA-containing nascent proteins enriched by affinity purification were quantitated using isobaric iTRAQ quantitative proteomics reagents. This was done to identify and estimative the relative abundance of nascent proteins enriched in the cytokine-treated samples compared to un-stimulated cells. […] Samples from four independent experiments were individually examined by LC-MS/MS. Peptides identified with 95% confidence were selected for further analysis. The mass spectrometry data was analyzed using Global Proteome Machine (GPM-http://www.thegpm.org/).

[7] = system: Human THP-1 monocytic cells; assay: qRT-PCR kinetics of cytokine-induced gene expression of identified candidates
Source text: Quantitative real-time PCR (qRT-PCR): RNA was isolated using the Qiagen RNeasy® kit as per the manufacturer's instructions (Rneasy is a registered trademark of Qiagen GmbH, Hilden, Fed. Rep. Germany). Gene expression was subsequently analyzed by qRT-PCR using SuperScript® III Platinum Two-Step qRT-PCR Kit with SYBR Green (SuperScript is a registered trademark of Invitrogen Corp., Carlsbad, Calif., USA), according to the manufacturer's instructions, in the ABI PRISM® 7300 sequence detection system (BI PRISM is a registered trademark of Applera Corp., Foster City, Calif., USA). Fold changes were calculated by the comparative Ct method as taught by Pfaffl (2001) after normalization with 18sRNA.

[8] = system: AHA-labeled human monocytic THP-1 cells; assay: ELISA of IL-8 production by AHA-labeled THP-1 cells; details: 10 ng/ml, 4 hr
Protocol: as §2, with “The biotin-alkyne reagent thus covalently coupled to the reactive azide group of the AHA-modified proteins was used to subsequently enrich the nascent proteins by affinity purification using Ultralink® Immobilized NeutrAvidin® resin (Ultralink and NeutrAvidin are registered trademarks of Pierce Biotechnology Inc, Rockford, Ill., USA), and the bound proteins were eluted using 6 M guanidinium hydrochloride.” left out

[9] = human PBMC, IL-32 20 ng/ml, 5 μM peptide, 24 hr

[N-]=[N+]=NCC[C@H](N)C(=O)O [AHA, L-azidohomoalanine]
Cytotoxicity of AHA labeling (LDH release) [1]: not cytotoxic | Cytotoxicity of AHA labeling (LDH release) [2]: cytotoxic | Cytotoxicity of AHA labeling (LDH release) ([3]; human monocytic THP-1 cells): not cytotoxic

IG-19: LL-37-derived synthetic peptide, SEQ ID NO: 23, IGKEFKRIVQRIKDFLRNL-NH2
Effect on IL-32-induced IL-1β production [4]: significantly suppressed | Effect on IL-32-induced TNF-α production [4]: significantly suppressed | Effect on IL-32-induced chemokine production (IL-8, GROα) [4]: did not completely neutralize | Effect on IL-32-induced IL-1β production [5, 9]: neutralized | Effect on IL-32-induced TNF-α production [5, 9]: neutralized | Effect on IL-32 induced pro-inflammatory protein production (FIG. 21 legend) [5]: suppression

IG-25: LL-37-derived synthetic peptide, SEQ ID NO: 22, IGKEFKRIVQRIKDFLRNLVPRTES-NH2
Effect on IL-32-induced IL-1β production [4]: significantly suppressed | Effect on IL-32-induced TNF-α production [4]: significantly suppressed | Effect on IL-32-induced chemokine production (IL-8, GROα) [4]: did not completely neutralize | Suppression of IL-32-induced TNF-α production [5, 9]: > 90% | Effect on IL-32-induced TNF-α production [5, 9]: neutralized | Effect on IL-32 induced pro-inflammatory protein production (FIG. 21 legend) [5]: suppression

IL-1β: Recombinant human cytokine IL-1β from eBioscience, used as stimulant
Fold Change of nascent protein AIFM1 [6]: 1.2 fold | Fold Change of nascent protein ALDOA [6]: 1.5 fold | Fold Change of nascent protein CALR [6]: 1.0 fold | Fold Change of nascent protein CAP1 [6]: 1.9 fold | Fold Change of nascent protein CTPS [6]: 1.5 fold | Fold Change of nascent protein DDX17 [6]: 2.2 fold | Fold Change of nascent protein EIFA3 [6]: 1.2 fold | Fold Change of nascent protein HMGN1 [6]: 1.5 fold | Fold Change of nascent protein HSPA4 [6]: 1.1 fold | Fold Change of nascent protein LCP1 [6]: 1.5 fold | Fold Change of nascent protein PRTN3 [6]: 0.8 fold | Fold Change of nascent protein PSME2 [6]: 2.3 fold | Fold Change of nascent protein PYGL [6]: 1.7 fold | Fold Change of nascent protein RAB14 [6]: 1.2 fold | Fold Change of nascent protein SEC22B [6]: 1.6 fold | Fold Change of nascent protein VDAC3 [6]: 1.1 fold | Cytotoxicity of cytokine treatment (LDH release) ([3]; AHA-labeled THP-1 cells, cytokine 10 ng/ml, 4 hr, data not shown): not cytotoxic | Up-regulation of gene expression of PYGL [7]: 1.5 fold | Up-regulation of gene expression of RAB14 and Eifa3 ([7]; p≦0.01): ≥ 1.5 fold | IL-8 production upon IL-1β stimulation compared to cells stimulated with TNF-α [8]: more than 2 fold | Production of IL-8 ([8]; p<0.001): significant

RK-25: LL-37-derived synthetic peptide, SEQ ID NO: 24, RKSKEKIGKEFKRIVQRIKDFLRNL-NH2
Effect on IL-32 induced pro-inflammatory protein production (FIG. 21 legend) [5]: suppression
